Laboratory results from US9457033B2, “Steroid alkaloids and uses thereof as antimicrobial agents against electron transport-deficient microbes and as potentiators for antimicrobial agents against pathogenic bacteria” (priority 2011, dated 2016).
Values after ≈ are worked out from the molar mass of the structure shown. Counter-ions that a name gives are not always drawn.

Key:
Assay type in all cases: cell-based, Staphylococcus aureus
[1] = test system: S. aureus SCV strain NewbouldΔhemB; test: MIC of compounds against SCV; details: for MIC: Staphylococcus aureus, read-out: MIC of Cpd against SCV hemB; for MIC of Cpd against SCV hemB: provided in categories (strong ≦ 0.5; moderate 4-8; low > 8)
S. aureus ATCC 29213 [2] = test: MIC, microdilution in CAMHB 24 h, with or without tomatidine/compound; details: for MIC: Staphylococcus aureus; for Fold (−TO/+TO): tomatidine at 8 μg/ml
S. aureus ATCC 29213 [3] = test: Checkerboard assay, aminoglycoside and tomatidine; details: for FIC index: aminoglycoside with tomatidine, tomatidine MIC considered 32 μg/ml, values overestimated; for Aminoglycoside MIC: checkerboard; for MIC: Staphylococcus aureus, ATCC29213, checkerboard
Experimental: This checkerboard protocol (Eliopoulos and Moellering, 1996) was conducted by a microdilution method similar to that use for standard MICs determination. In 96 wells plates, antibiotics were loaded at a 4× concentration (where X is the maximal tested concentration) in well A1 and at a 2× concentration in the others wells of the column 1. Antibiotics were serially diluted 1:1 from the column 2 to column 10. […] Wells A12, B12, […] are positive untreated controls whereas wells […] are negative non-inoculated controls. […] The FIC index was calculated as follow (Eliopoulos and Moellering, 1996): FIC […]/MICB, where A and B are MICs of compounds A and B in combination and where MICA and MICB are the MICs of compound A alone and of compound B alone, respectively, and FICA and FICB are the FICs of compound A and of compound B, respectively.

[4] = ATCC29213, compound alone, read-out: MIC of Cpd against ATCC29213
[5] = gentamicin with 8 μg/ml of Cpd, provided in categories of synergy (1-2 no or mild; 4-16 moderate or strong)
[6] = ATCC29213, read-out: MIC of Cpd against ATCC29213

CC(O)[C@H]1CC[C@H]2[C@@H]3CC[C@H]4C[C@@H](O)CC[C@]4(C)[C@H]3CC[C@]12C (stereo in doubt) [Compound 54, pregnane-3,20-diol]
MIC [1]: > 8 µg/mL
MIC (S. aureus ATCC 29213 [2]; [4]): > 16 µg/mL
Fold (MIC of GEN alone/MIC of GEN with Cpd) (S. aureus ATCC 29213 [2]; [5]): 1-2 fold

NCC[C@H](O)C(=O)N[C@@H]1C[C@H](N)[C@@H](O[C@H]2O[C@H](CN)[C@@H](O)[C@H](O)[C@H]2O)[C@H](O)[C@H]1O[C@H]1O[C@H](CO)[C@@H](O)[C@H](N)[C@H]1O [Amikacin, amikacin]
MIC −TO (S. aureus ATCC 29213 [2]; ATCC 29213, absence of tomatidine): 2 µg/mL (≈ 3.42 µM)
MIC +TO (S. aureus ATCC 29213 [2]; ATCC 29213, presence of tomatidine at 8 μg/ml): 0.5 µg/mL
Fold (−TO/+TO) (S. aureus ATCC 29213 [2]; ATCC 29213): 4 fold
FIC index (S. aureus ATCC 29213 [3]): ≦0.133
Aminoglycoside MIC (S. aureus ATCC 29213 [3]; tomatidine 0 μg/ml): 2 µg/mL
Aminoglycoside MIC (S. aureus ATCC 29213 [3]; tomatidine 0.06 μg/ml): 2 µg/mL
Aminoglycoside MIC (S. aureus ATCC 29213 [3]; tomatidine 0.12 μg/ml): 0.5 µg/mL
Aminoglycoside MIC (S. aureus ATCC 29213 [3]; tomatidine 0.25 μg/ml): 0.25 µg/mL
Aminoglycoside MIC (S. aureus ATCC 29213 [3]; tomatidine 0.5 μg/ml): 0.25 to 0.5 µg/mL
Aminoglycoside MIC (S. aureus ATCC 29213 [3]; tomatidine 1 μg/ml): 0.25 to 1 µg/mL
Aminoglycoside MIC (S. aureus ATCC 29213 [3]; tomatidine 2 μg/ml): 0.25 to 1 µg/mL
Aminoglycoside MIC (S. aureus ATCC 29213 [3]; tomatidine 4 μg/ml): 0.25 µg/mL
Aminoglycoside MIC (S. aureus ATCC 29213 [3]; tomatidine 8 μg/ml): 0.5 µg/mL

C[C@H]1CC[C@@]2(O[C@H]3C[C@H]4[C@@H]5CC[C@H]6C[C@@H](O)CC[C@]6(C)[C@H]5CC[C@]4(C)[C@H]3[C@@H]2C)N(C=O)C1 [Compound 21, N-formyl tomatidine]
MIC of Cpd against SCV hemB [1]: >8 µg/mL
MIC of Cpd against ATCC29213 (S. aureus ATCC 29213 [2]; compound alone): >16 µg/mL
Fold (MIC of GEN alone/MIC of GEN with Cpd) (S. aureus ATCC 29213 [2]; [5]): 1-2 fold

C[C@H]1CC[C@@]2(NC1)O[C@H]1C[C@H]3[C@@H]4CC[C@H]5C[C@H](O)CC[C@]5(C)[C@H]4CC[C@]3(C)[C@H]1[C@@H]2C.Cl [Compound 23, 3α-hydroxytomatidine hydrochloride Salt]
MIC of Cpd against SCV hemB [1]: 4 to 8 µg/mL
MIC of Cpd against ATCC29213 (S. aureus ATCC 29213 [2]; compound alone): >16 µg/mL
Fold (MIC of GEN alone/MIC of GEN with Cpd) (S. aureus ATCC 29213 [2]; [5]): 4-16 fold

C[C@H]1CC[C@]2(NC1)O[C@H]1C[C@H]3[C@@H]4CC[C@H]5CC(=O)CC[C@]5(C)[C@H]4CC[C@]3(C)[C@H]1[C@@H]2C.Cl [Compound 25, 3-oxotomatidine hydrochloride Salt]
MIC of Cpd against SCV hemB [1]: ≦0.5 μg/ml
MIC of Cpd against ATCC29213 (S. aureus ATCC 29213 [2]; compound alone): >16 µg/mL
Fold (MIC of GEN alone/MIC of GEN with Cpd) (S. aureus ATCC 29213 [2]; [5]): 4-16 fold

C[C@H](CN)CCC[C@@H](C)C1[C@@H](O)C[C@H]2[C@@H]3CC[C@H]4C[C@@H](O)CC[C@]4(C)[C@H]3CC[C@]12C (some centres unmarked) [Compound 26]
MIC [1]: ≤ 0.5 µg/mL
MIC (S. aureus ATCC 29213 [2]; [6]): > 16 µg/mL
Fold (MIC of GEN alone/MIC of GEN with Cpd) (S. aureus ATCC 29213 [2]; [5]): 4-16 fold

CC(=O)[C@H]1CC[C@H]2[C@@H]3CC[C@H]4C[C@@H](O)CC[C@]4(C)[C@H]3CC[C@]12C [Compound 28, Pregnanolone]
MIC [1]: > 8 µg/mL
MIC (S. aureus ATCC 29213 [2]; [6]): > 16 µg/mL
Fold (MIC of GEN alone/MIC of GEN with Cpd) (S. aureus ATCC 29213 [2]; [5]): 1-2 fold

CC(N)[C@H]1CC[C@H]2[C@@H]3CC[C@H]4C[C@@H](O)CC[C@]4(C)[C@H]3CC[C@]12C (stereo partly drawn) [Compound 30a, pregnan-3β-ol-20-amine]
MIC [1]: > 8 µg/mL
MIC (S. aureus ATCC 29213 [2]; [4]): > 16 µg/mL
Fold (MIC of GEN alone/MIC of GEN with Cpd) (S. aureus ATCC 29213 [2]; [5]): 1-2 fold

CC(NCCCN(C)C)[C@H]1CC[C@H]2[C@@H]3CC[C@H]4C[C@@H](O)CC[C@]4(C)[C@H]3CC[C@]12C (stereo partly drawn) [Compound 32, pregnan-3β-ol-20-((N,N-dimethylamino)propyl)amine]
MIC [1]: > 8 µg/mL
MIC (S. aureus ATCC 29213 [2]; [4]): > 16 µg/mL
Fold (MIC of GEN alone/MIC of GEN with Cpd) (S. aureus ATCC 29213 [2]; [5]): 4-16 fold

CN(C)CC(=O)[C@H]1CC[C@H]2[C@@H]3CC[C@H]4C[C@@H](O)CC[C@]4(C)[C@H]3CC[C@]12C [Compound 47, N,N-dimethyl-21-aminopregnanolone]
MIC [1]: > 8 µg/mL
MIC (S. aureus ATCC 29213 [2]; [6]): > 16 µg/mL
Fold (MIC of GEN alone/MIC of GEN with Cpd) (S. aureus ATCC 29213 [2]; [5]): 1-2 fold

C[C@]12CC[C@H](O)C[C@@H]1CC[C@@H]1[C@@H]2CC[C@]2(C)[C@@H](C(=O)CN3CCCCC3)CC[C@@H]12 [Compound 48, 21-piperidinopregnanolone]
MIC [1]: > 8 µg/mL
MIC (S. aureus ATCC 29213 [2]; [6]): > 16 µg/mL
Fold (MIC of GEN alone/MIC of GEN with Cpd) (S. aureus ATCC 29213 [2]; [5]): 1-2 fold

CNCC(=O)[C@H]1CC[C@H]2[C@@H]3CCC4CC(O)CC[C@]4(C)[C@H]3CC[C@]12C.Cl (some centres unmarked) [Compound 49, N-methyl-21-aminopregnanolone hydrochloride salt]
MIC of Cpd against SCV hemB [1]: >8 µg/mL
MIC of Cpd against ATCC29213 (S. aureus ATCC 29213 [2]; compound alone): >16 µg/mL
Fold (MIC of GEN alone/MIC of GEN with Cpd) (S. aureus ATCC 29213 [2]; [5]): 1-2 fold

C[C@]12CC[C@H]3[C@@H](CCC4CC(O)CC[C@@]43C)[C@@H]1CC[C@@H]2C(=O)CN1CCNCC1.Cl (some centres unmarked) [Compound 50, 21-piperazinopregnanolone hydrochloride Salt]
MIC of Cpd against SCV hemB [1]: >8 µg/mL
MIC of Cpd against ATCC29213 (S. aureus ATCC 29213 [2]; compound alone): >16 µg/mL
Fold (MIC of GEN alone/MIC of GEN with Cpd) (S. aureus ATCC 29213 [2]; [5]): 1-2 fold

C=CCOC1CCC2(C)C(CCC3C2CCC2(C)C3CC3OC4(CCC(C)CN4)C(C)C32)C1.Cl (centres unmarked) [Compound 56, O-allyltomatidine hydrochloride Salt]
MIC of Cpd against SCV hemB [1]: ≦0.5 μg/ml
MIC of Cpd against ATCC29213 (S. aureus ATCC 29213 [2]; compound alone): 8 to 16 µg/mL
Fold (MIC of GEN alone/MIC of GEN with Cpd) (S. aureus ATCC 29213 [2]; gentamicin with Compound 56 used at 4 μg/ml, categories of synergy): 4-16 fold

CS(=O)(=O)O.C[C@H]1CC[C@]2(NC1)O[C@H]1C[C@H]3[C@@H]4CC[C@H]5C[C@@H](O)CC[C@]5(C)[C@H]4CC[C@]3(C)[C@H]1[C@@H]2C [Compound 57, tomatidine methanesulfonate]
MIC of Cpd against SCV hemB [1]: ≦0.5 μg/ml
MIC of Cpd against ATCC29213 (S. aureus ATCC 29213 [2]; compound alone): >16 µg/mL
Fold (MIC of GEN alone/MIC of GEN with Cpd) (S. aureus ATCC 29213 [2]; [5]): 4-16 fold

C[C@H]1CC[C@]2(NC1)O[C@@]1(C)C[C@@]3(C)[C@@H]4CC[C@@]5(C)C[C@@H](O)CC[C@]5(C)[C@@]4(C)CC[C@]3(C)[C@@]1(C)[C@@H]2C.O=C(O)CC(O)(CC(=O)O)C(=O)O [Compound 58, tomatidine citrate]
MIC [1]: ≤ 0.5 µg/mL
MIC (S. aureus ATCC 29213 [2]; [6]): > 16 µg/mL
Fold (MIC of GEN alone/MIC of GEN with Cpd) (S. aureus ATCC 29213 [2]; [5]): 4-16 fold

[H]/N=C(/N)N[C@H]1[C@H](O)[C@@H](O)[C@H](O[C@@H]2O[C@@H](C)[C@](O)(C=O)[C@H]2O[C@@H]2O[C@@H](CO)[C@H](O)[C@@H](O)[C@@H]2NC)[C@@H](N/C(N)=N\[H])[C@@H]1O [Streptomycin, streptomycin]
Fold (−TO/+TO) (S. aureus ATCC 29213 [2]; ATCC 29213): 4-8 fold
MIC (S. aureus ATCC 29213 [2]; ATCC29213, ATCC 29213, absence of tomatidine, read-out: MIC −TO): 4 to 8 µg/mL (≈ 6.88 to 13.8 µM)
MIC (S. aureus ATCC 29213 [2]; ATCC29213, ATCC 29213, presence of tomatidine at 8 μg/ml, read-out: MIC +TO): 1 µg/mL
MIC (S. aureus ATCC 29213 [3]; tomatidine 0 μg/ml): 4 to 8 µg/mL
MIC (S. aureus ATCC 29213 [3]; tomatidine 0.06 μg/ml): 4 µg/mL
MIC (S. aureus ATCC 29213 [3]; tomatidine 0.12 μg/ml): 2 µg/mL
MIC (S. aureus ATCC 29213 [3]; tomatidine 0.25 μg/ml): 1 to 2 µg/mL
MIC (S. aureus ATCC 29213 [3]; tomatidine 0.5 μg/ml): 1 µg/mL
MIC (S. aureus ATCC 29213 [3]; tomatidine 1 μg/ml): 1 µg/mL
MIC (S. aureus ATCC 29213 [3]; tomatidine 2 μg/ml): 1 µg/mL
MIC (S. aureus ATCC 29213 [3]; tomatidine 4 μg/ml): 1 µg/mL
MIC (S. aureus ATCC 29213 [3]; tomatidine 8 μg/ml): 1 µg/mL
FIC index (S. aureus ATCC 29213 [3]): ≦0.199

C[C@H]1CC[C@]2(NC1)O[C@H]1C[C@H]3[C@@H]4CC[C@H]5C[C@@H](O)CC[C@]5(C)[C@H]4CC[C@]3(C)[C@H]1[C@@H]2C [Tomatidine hydrochloride salt]
MIC [1]: ≤ 0.5 µg/mL
MIC (S. aureus ATCC 29213 [2]; [6]): > 16 µg/mL
Fold (MIC of GEN alone/MIC of GEN with Cpd) (S. aureus ATCC 29213 [2]; [5]): 4-16 fold
